Experimental data: patent US10568897B2, “Bidens pilosa and polyacetylenic compounds for prevention and treatment of coccidiosis” (ACADEMIA SINICA, priority 2011, dated 2020)

Test system: E. tenella
Assay: Eimeria infection (coccidiosis) in chickens: survival, body weight, clinical symptoms, gut lesions, excreted oocysts
Format: in vivo
Details: for Body weight Day 21: diet with 6 mg/kg maduramicin or 50 g/kg BPP for 7 days, 6 mg/kg
Description: FIGS. 3 A-F show the effect of BPP on the survival rate (FIG. 3A), sick bird appearance (FIG. 3B) and clinical symptoms (FIG. 3C) in the chickens. One-day-old chickens were fed with control diet for 14 days. On day 14, the birds were infected with vehicle (CTR) or E. tenella (ET) and fed with control diet (CTR and ET groups) and the diet containing 6 mg/kg maduramicin (ET+Mad), or 5%, or 1%, or 0.5% of BPP (ET+BPP) for additional 7 days. After the birds were sacrificed, the cecum was dissected and fixed for hematoxylin and eosin Y staining. The representative images of cecal hemorrhagic lesions (FIG. 3D) and histopathology (FIG. 3E) are shown.
One-d-old Lohmann broiler chicks hatched at Taichung Hatchery (Taiwan) were wing-banded upon arrival, weighed, and randomly placed in Petersime starter brooder units. At 1 and 2 d post-hatch, the birds were given free access to water and diets. The diets were formulated by mixing the base diet (Chicken feed, Taiwan Sugar Corporation) with carrier alone (control diet) or the indicated dose of B. pilosa power (BPP diet). In case of cytopiloyne experiments, the animal was administered with 45 μg of isolated cytopiloyne each day. After grouping, birds were tube-fed with Eimeria oocysts. Growth performance (body weight and feed conversion), pathology (bloody droppings and gut morphometry) and survival rate were measured and examined. All birds were maintained in the institutional animal facility and handled according to the guidelines of the Academia Sinica Institutional Animal Care and Utilization Committee.
Since B. pilosa was claimed to treat protozoan and bacterial infections, we tested whether B. pilosa could protect the chickens from coccidiosis. To this end, we infected the […] birds with vehicle and Eimeria oocysts. The birds were given control diet, the control diet mixed with maduramicin, a commercial anti-coccidial, and 10% BPP diet. […] In contrast, 60% of the birds with Eimeria infection survived 7 days post-infection (FIG. 3A). However, treatment with a dose (6 mg/k) of maduramicin and a dose (50 g/kg) of […] BPP increased the survival rate of the birds with Eimeria infection by 30% (FIG. 3A). […] However, treatment with maduramicin and BPP increased body weight from 132.5 g to 145.4 g and 154.3 g. respectively (Table 2). […] One-d-old chickens were fed with control diet for 14 days. On day 14, the birds were infected with vehicle (CTR) or E. tenella (ET) and fed with control diet (CTR and ET groups) and the diet containing 6 mg/kg maduramicin (ET+Mad) or 50 g/kg BPP (E+T BPP) for additional 7 days. Body weight was measured. The number of the birds in each group is indicated in the parentheses.
Next, we checked clinical symptoms of the chickens with or without Eimeria infection. […] In contrast, the birds with Eimeria infection show the typical sick bird appearances (FIG. 3B). […] In contrast, treatment with maduramicin or BPP reduced bloody droppings and diarrhea (FIG. 3C).
The gut lesions of the birds 7 days post-infection were also examined. Hemorrhagic lesions in the cecum of the birds infected with Eimeria oocysts were observed (FIG. 3D). In contrast, treatment with maduramicin and BPP alleviated the severity of hemorrhagic lesions (FIG. 3D).
The excretion of oocysts is an important indicator of the efficacy of anti-coccidial drug. Thus, we assessed the number of excreted oocysts from the chickens with Eimeria infection. […] The data on the effect of BPP on the reduction of the excreted oocysts are consistent with the alleviation of the clinical symptoms by BPP. […] One-d-old chickens were fed with control diet for 14 days. On day 14, the birds were infected with vehicle (CTR) or E. tenella (ET) and fed with control diet (CTR and ET groups) and the diet containing 6 mg/kg maduramicin (ET+Mad) or 50 g/kg BPP (ET+BPP) for additional 7 days. The number of the excreted oocysts in the feces (oocysts per gram) of the birds was determined. […]

[1] = E. tenella infected on day 14, diet with 6 mg/kg maduramicin or 50 g/kg BPP
[2] = Eimeria infected birds given diet with maduramicin or BPP

SMILES: CO[C@@H]1[C@@H](OC)[C@H](C)[C@@](O)(CC(=O)O)O[C@H]1[C@H](C)[C@H]1O[C@@]2(CC[C@@](C)([C@H]3CC[C@@](C)([C@@H]4O[C@@H]([C@H]5O[C@](C)(O)[C@H](C)C[C@@H]5C)C[C@@H]4O[C@@H]4C[C@H](OC)[C@@H](OC)[C@H](C)O4)O3)O2)C[C@H](O)[C@H]1C [maduramicin, Maduramicin]
- Number of the excreted oocysts in the infected birds (6 mg/kg maduramicin or 50 g/kg BPP diet): reduced half
- Severity of hemorrhagic lesions in the cecum (7 days post-infection): alleviated
- Number of villi and depth of crypts in the gut (7 days post-infection, histostaining): increased
- Excreted oocysts in the feces Day 4 [1]: 5 ± 0.3 oocysts per gram
- Excreted oocysts in the feces Day 5 [1]: 78 ± 3.8 oocysts per gram
- Excreted oocysts in the feces Day 6 [1]: 187 ± 4.7 oocysts per gram
- Excreted oocysts in the feces Day 7 [1]: 343 ± 52.2 oocysts per gram
- Body weight Day 21 (E. tenella infected on day 14): 145.4 g
- Body weight Day 21 (E. tenella infected on day 14, listed as Mad): 145.4 ± 6.2 g
- Bloody droppings and diarrhea [2]: reduced
- Sick bird appearance (droopiness, listlessness, ruffled feather) [2]: no obvious sick bird appearance
